Test results reported in PubChem BioAssay (NCI).
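Each compound was tested at five concentrations against cells in 96-well plates for 48 hours. At the GI50, growth is halved. Definition used: TGI = concentration required for complete inhibition of growth.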

Columns and labels:
Test in all cases: DTP human tumour cell line panel, 48 h
HS 578T breast = test system: HS 578T breast
SN12C renal = test system: SN12C renal
HCC-2998 colon = test system: HCC-2998 colon
SK-MEL-2 melanoma = test system: SK-MEL-2 melanoma
HCT-116 colon = test system: HCT-116 colon
HCT-15 colon = test system: HCT-15 colon
HOP-62 NSCLC = test system: HOP-62 NSCLC
CAKI-1 renal = test system: CAKI-1 renal
HL-60(TB) leukemia = test system: HL-60(TB) leukemia
M14 melanoma = test system: M14 melanoma
UO-31 renal = test system: UO-31 renal
EKVX NSCLC = test system: EKVX NSCLC
MDA-MB-231 breast = test system: MDA-MB-231 breast
MALME-3M melanoma = test system: MALME-3M melanoma
K-562 leukemia = test system: K-562 leukemia
NCI-H226 lung = test system: NCI-H226 lung
SNB-75 CNS = test system: SNB-75 CNS
SF-295 CNS = test system: SF-295 CNS
SK-MEL-5 melanoma = test system: SK-MEL-5 melanoma
NCI/ADR-RES ovarian = test system: NCI/ADR-RES ovarian
OVCAR-5 ovarian = test system: OVCAR-5 ovarian
A498 renal = test system: A498 renal
SF-539 CNS = test system: SF-539 CNS
DU-145 prostate = test system: DU-145 prostate
OVCAR-8 ovarian = test system: OVCAR-8 ovarian
RXF 393 renal = test system: RXF 393 renal
MCF7 breast = test system: MCF7 breast
NCI-H460 lung = test system: NCI-H460 lung
BT-549 breast = test system: BT-549 breast
SK-OV-3 ovarian = test system: SK-OV-3 ovarian
IGROV1 ovarian = test system: IGROV1 ovarian
UACC-257 melanoma = test system: UACC-257 melanoma
KM12 colon = test system: KM12 colon
MDA-MB-435 = test system: MDA-MB-435
CCRF-CEM leukemia = test system: CCRF-CEM leukemia
SW-620 colon = test system: SW-620 colon
A549 NSCLC = test system: A549 NSCLC
SR leukemia = test system: SR leukemia
UACC-62 melanoma = test system: UACC-62 melanoma
NCI-H23 lung = test system: NCI-H23 lung
NCI-H522 lung = test system: NCI-H522 lung
TK-10 renal = test system: TK-10 renal
MOLT-4 leukemia = test system: MOLT-4 leukemia
PC-3 prostate = test system: PC-3 prostate
COLO 205 colon = test system: COLO 205 colon
U251 CNS = test system: U251 CNS
LOX IMVI melanoma = test system: LOX IMVI melanoma
ACHN renal = test system: ACHN renal
OVCAR-3 ovarian = test system: OVCAR-3 ovarian
RPMI-8226 leukemia = test system: RPMI-8226 leukemia
OVCAR-4 ovarian = test system: OVCAR-4 ovarian
SF-268 CNS = test system: SF-268 CNS
786-0 renal = test system: 786-0 renal
HT29 colon = test system: HT29 colon
SK-MEL-28 melanoma = test system: SK-MEL-28 melanoma
SNB-19 CNS = test system: SNB-19 CNS
HOP-92 NSCLC = test system: HOP-92 NSCLC

**Q.** What does the source list for `CCOC(=O)c1nc2cc(C(F)(F)F)ccc2[n+]([O-])c1C`?
**A.** GI50 (HS 578T breast): > 100 µM; TGI (HS 578T breast): > 100 µM; GI50 (SN12C renal): > 100 µM; TGI (SN12C renal): > 100 µM; GI50 (HCC-2998 colon): > 100 µM; TGI (HCC-2998 colon): > 100 µM; GI50 (SK-MEL-2 melanoma): > 100 µM; TGI (SK-MEL-2 melanoma): > 100 µM; GI50 (HCT-116 colon): > 100 µM; TGI (HCT-116 colon): > 100 µM; GI50 (HCT-15 colon): > 100 µM; TGI (HCT-15 colon): > 100 µM; GI50 (HOP-62 NSCLC): > 100 µM; TGI (HOP-62 NSCLC): > 100 µM; GI50 (CAKI-1 renal): > 100 µM; TGI (CAKI-1 renal): > 100 µM; GI50 (HL-60(TB) leukemia): > 100 µM; TGI (HL-60(TB) leukemia): > 100 µM; GI50 (M14 melanoma): > 100 µM; TGI (M14 melanoma): > 100 µM; GI50 (UO-31 renal): > 100 µM; TGI (UO-31 renal): > 100 µM; GI50 (EKVX NSCLC): > 100 µM; TGI (EKVX NSCLC): > 100 µM; GI50 (MDA-MB-231 breast): > 100 µM; TGI (MDA-MB-231 breast): > 100 µM; GI50 (MALME-3M melanoma): > 100 µM; TGI (MALME-3M melanoma): > 100 µM; GI50 (K-562 leukemia): > 100 µM; TGI (K-562 leukemia): > 100 µM; GI50 (NCI-H226 lung): > 100 µM; TGI (NCI-H226 lung): > 100 µM; GI50 (SNB-75 CNS): > 100 µM; TGI (SNB-75 CNS): > 100 µM; GI50 (SF-295 CNS): > 100 µM; TGI (SF-295 CNS): > 100 µM; GI50 (SK-MEL-5 melanoma): > 100 µM; TGI (SK-MEL-5 melanoma): > 100 µM; GI50 (NCI/ADR-RES ovarian): > 100 µM; TGI (NCI/ADR-RES ovarian): > 100 µM; GI50 (OVCAR-5 ovarian): > 100 µM; TGI (OVCAR-5 ovarian): > 100 µM; GI50 (A498 renal): > 100 µM; TGI (A498 renal): > 100 µM; GI50 (SF-539 CNS): > 100 µM; TGI (SF-539 CNS): > 100 µM; GI50 (DU-145 prostate): > 100 µM; TGI (DU-145 prostate): > 100 µM; GI50 (OVCAR-8 ovarian): > 100 µM; TGI (OVCAR-8 ovarian): > 100 µM; GI50 (RXF 393 renal): 33.9 µM; TGI (RXF 393 renal): > 100 µM; GI50 (MCF7 breast): > 100 µM; TGI (MCF7 breast): > 100 µM; GI50 (NCI-H460 lung): > 100 µM; TGI (NCI-H460 lung): > 100 µM; GI50 (BT-549 breast): > 100 µM; TGI (BT-549 breast): > 100 µM; GI50 (SK-OV-3 ovarian): > 100 µM; TGI (SK-OV-3 ovarian): > 100 µM; GI50 (IGROV1 ovarian): > 100 µM; TGI (IGROV1 ovarian): > 100 µM; GI50 (UACC-257 melanoma): > 100 µM; TGI (UACC-257 melanoma): > 100 µM; GI50 (KM12 colon): > 100 µM; TGI (KM12 colon): > 100 µM; GI50 (MDA-MB-435): > 100 µM; TGI (MDA-MB-435): > 100 µM; GI50 (CCRF-CEM leukemia): 0.159 µM; TGI (CCRF-CEM leukemia): 0.533 µM; GI50 (SW-620 colon): > 100 µM; TGI (SW-620 colon): > 100 µM; GI50 (A549 NSCLC): > 100 µM; TGI (A549 NSCLC): > 100 µM; GI50 (SR leukemia): > 100 µM; TGI (SR leukemia): > 100 µM; GI50 (UACC-62 melanoma): > 100 µM; TGI (UACC-62 melanoma): > 100 µM; GI50 (NCI-H23 lung): > 100 µM; TGI (NCI-H23 lung): > 100 µM; GI50 (NCI-H522 lung): > 100 µM; TGI (NCI-H522 lung): > 100 µM; GI50 (TK-10 renal): > 100 µM; TGI (TK-10 renal): > 100 µM; GI50 (MOLT-4 leukemia): > 100 µM; TGI (MOLT-4 leukemia): > 100 µM; GI50 (PC-3 prostate): > 100 µM; TGI (PC-3 prostate): > 100 µM; GI50 (COLO 205 colon): > 100 µM; TGI (COLO 205 colon): > 100 µM; GI50 (U251 CNS): > 100 µM; TGI (U251 CNS): > 100 µM; GI50 (LOX IMVI melanoma): > 100 µM; TGI (LOX IMVI melanoma): > 100 µM; GI50 (ACHN renal): > 100 µM; TGI (ACHN renal): > 100 µM; GI50 (OVCAR-3 ovarian): > 100 µM; TGI (OVCAR-3 ovarian): > 100 µM; GI50 (RPMI-8226 leukemia): > 100 µM; TGI (RPMI-8226 leukemia): > 100 µM; GI50 (OVCAR-4 ovarian): > 100 µM; TGI (OVCAR-4 ovarian): > 100 µM; GI50 (SF-268 CNS): > 100 µM; TGI (SF-268 CNS): > 100 µM; GI50 (786-0 renal): > 100 µM; TGI (786-0 renal): > 100 µM; GI50 (HT29 colon): > 100 µM; TGI (HT29 colon): > 100 µM; GI50 (SK-MEL-28 melanoma): > 100 µM; TGI (SK-MEL-28 melanoma): > 100 µM; GI50 (SNB-19 CNS): > 100 µM; TGI (SNB-19 CNS): > 100 µM

**Q.** What does the source list for `O=C(COc1ccc(-c2nc3cc(Cl)c(Cl)cc3[nH]2)cc1)N=Nc1c(O)[nH]c2ccccc12`?
**A.** GI50 (HS 578T breast): 1.61 µM; TGI (HS 578T breast): 5.68 µM; GI50 (SN12C renal): 3.85 µM; TGI (SN12C renal): > 100 µM; GI50 (HCC-2998 colon): 1.35 µM; TGI (HCC-2998 colon): 3.75 µM; GI50 (SK-MEL-2 melanoma): 3.84 µM; TGI (SK-MEL-2 melanoma): 24.1 µM; GI50 (HCT-116 colon): 9.12 µM; TGI (HCT-116 colon): > 100 µM; GI50 (HCT-15 colon): > 100 µM; TGI (HCT-15 colon): > 100 µM; TGI (HOP-62 NSCLC): > 40.8 µM; GI50 (CAKI-1 renal): 6.91 µM; TGI (CAKI-1 renal): > 100 µM; GI50 (HL-60(TB) leukemia): > 100 µM; TGI (HL-60(TB) leukemia): > 100 µM; GI50 (M14 melanoma): 4.17 µM; TGI (M14 melanoma): > 100 µM; GI50 (UO-31 renal): > 100 µM; TGI (UO-31 renal): > 100 µM; GI50 (EKVX NSCLC): 4.97 µM; TGI (EKVX NSCLC): > 100 µM; GI50 (MDA-MB-231 breast): 1.09 µM; TGI (MDA-MB-231 breast): 3.43 µM; GI50 (K-562 leukemia): 0.675 µM; TGI (K-562 leukemia): > 100 µM; GI50 (SNB-75 CNS): 1.61 µM; TGI (SNB-75 CNS): 3.68 µM; GI50 (SF-295 CNS): 2.63 µM; TGI (SF-295 CNS): 9.01 µM; GI50 (NCI/ADR-RES ovarian): > 100 µM; TGI (NCI/ADR-RES ovarian): > 100 µM; GI50 (OVCAR-5 ovarian): > 100 µM; TGI (OVCAR-5 ovarian): > 100 µM; GI50 (A498 renal): 3.62 µM; TGI (A498 renal): 18.6 µM; GI50 (SF-539 CNS): 2.65 µM; TGI (SF-539 CNS): 24.2 µM; GI50 (DU-145 prostate): 1.51 µM; TGI (DU-145 prostate): > 100 µM; GI50 (OVCAR-8 ovarian): 1.55 µM; TGI (OVCAR-8 ovarian): > 100 µM; GI50 (RXF 393 renal): 2.71 µM; TGI (RXF 393 renal): 9.77 µM; GI50 (BT-549 breast): 12.7 µM; TGI (BT-549 breast): 59 µM; GI50 (SK-OV-3 ovarian): 2.28 µM; TGI (SK-OV-3 ovarian): 9.88 µM; GI50 (IGROV1 ovarian): 3.13 µM; TGI (IGROV1 ovarian): > 53.3 µM; GI50 (CCRF-CEM leukemia): 0.749 µM; TGI (CCRF-CEM leukemia): > 100 µM; GI50 (SR leukemia): 0.803 µM; TGI (SR leukemia): 31.7 µM; GI50 (UACC-62 melanoma): 2.83 µM; TGI (UACC-62 melanoma): > 100 µM; GI50 (NCI-H23 lung): 3.03 µM; TGI (NCI-H23 lung): 15.1 µM; GI50 (NCI-H522 lung): 2.55 µM; TGI (NCI-H522 lung): > 100 µM; GI50 (TK-10 renal): > 33.1 µM; TGI (TK-10 renal): > 58.5 µM; GI50 (MOLT-4 leukemia): 3.57 µM; TGI (MOLT-4 leukemia): > 100 µM; GI50 (COLO 205 colon): 2.29 µM; TGI (COLO 205 colon): > 100 µM; GI50 (U251 CNS): 0.564 µM; TGI (U251 CNS): 2.1 µM; GI50 (LOX IMVI melanoma): 1.02 µM; TGI (LOX IMVI melanoma): 2.64 µM; GI50 (ACHN renal): 3.71 µM; TGI (ACHN renal): > 100 µM; GI50 (OVCAR-3 ovarian): 2.7 µM; TGI (OVCAR-3 ovarian): > 100 µM; GI50 (HOP-92 NSCLC): 1.59 µM; TGI (HOP-92 NSCLC): 5.22 µM; GI50 (786-0 renal): 2.33 µM; TGI (786-0 renal): 8.5 µM; GI50 (HT29 colon): 1.14 µM; TGI (HT29 colon): > 100 µM; GI50 (SNB-19 CNS): 1.78 µM; TGI (SNB-19 CNS): 6.62 µM
